Test results: patent US11839623B2, “Antiviral prodrugs and formulations thereof” (BOARD OF REGENTS OF THE UNIVERSITY OF NEBRASKA, priority 2018, dated 2023)
pEC50, pIC50: −log10 of the molar value. Where “and” joins values, the source holds several entries; their conditions need not be identical. Equal values may be shown once.

How the values were obtained:
HIV-1ADA [1] = experiment: IC50 determination of ABC, MABC, PABC in MDM challenged with HIV-1ADA (RT activity); format: cell-based; settings: HIV-1ADA MOI 0.1, RT activity day 10, read-out: IC50 on reverse transcriptase
Description: (§1) Antiretroviral activities. Antiretroviral efficacy was determined by measurements of HIV reverse transcriptase (RT) activity. For IC50 determination, MDM were exposed to various concentrations (0.01-1000 nM) of ABC, MABC or PABC for 1 hour followed by challenge with HIV-1ADA at a multiplicity of infection (MOI) of 0.1 infectious particles per cell for 4 hours. Following viral challenge, cells were washed and incubated with the same concentration of drug used before infection for an additional 10 days in culture. Culture fluids were collected on day 10 for the measurement of RT activity. To assess antiretroviral efficacy, MDM were treated with 100 μM ABC, PABC or NPABC as described above for 8 hours. After treatment, cells were washed with PBS and cultured with fresh media, with half-media exchanges every other day. At 0, 4, 12 hours, and 1, 5, 10, 15 or 20 days after treatment, cells were challenged with HIV-1ADA at an MOI of 0.1 infectious particles per cell for 16 hours. After viral infection, the cells were cultured an additional 10 days with half-media exchanges every other day. Culture fluids were collected for measurement of RT activity. Cells were fixed with 4% PFA and expression of HIV-1 p24 antigen was determined by immunocytochemistry.

[2] = Characterization of NPABC nanoparticles (DLS, drug loading); format: physicochemical; settings: PABC nanocrystals
Text: The LASER ProTide nanocrystals (NPABC, NP3TC, NPFTC and NPTFV) may be coated with either cell or tissue receptor targeted or non-targeted poloxamer 407 (P407), poloxamer 338 (P338), 1,2-distearoyl-sn-glycero-3-phosphocholine (DSPC), 1,2-distearoyl-sn-glycero-3-phosphoethanolamine-N-carboxy(polyethylene glycol)-2000 (DSPE-PEG) or polyvinyl alcohol (PVA). The nanocrystals may also be stabilized with polysorbate and polyethylene glycol surfactants. Here, a drug to surfactant ratio of 2:1 by weight was used to manufacture NPABC nanoparticles. Briefly, 1-5% (w/v) PABC and 0.5-2.5% (w/v) P407 were mixed in sterile phosphate buffer. The premixed suspensions were nanoformulated by wet milling or high-pressure homogenization at 20,000-psi until desirable size and polydispersity index were achieved. The LASER ProTide nanoformulations were characterized for particle size, polydispersity index (PDI) and zeta potential by dynamic light scattering (DLS). […] For P407-PABC nanoparticles (NPABC), the average size (diameter) was 350 nm, the PDI was 0.28, and the charge was −21.4 mV.
Nanoparticle morphology was determined by scanning electron microscopy (SEM). UPLC MS/MS was used for drug quantitation. The conversion of ABC to PABC facilitated production of stable nanocrystals with a drug loading capacity of more than 70%.

HIV-1ADA [3] = experiment: Antiretroviral efficacy of ABC, PABC, NPABC in MDM challenged with HIV-1ADA (RT activity, p24); format: cell-based; settings: 100 μM 8 hours
Description: as §1, with “Culture fluids were collected for measurement of RT activity.” left out
Significant improvements in MDM antiretroviral efficacy were also observed for PABC and NPABC. […] HIV-1 p24 was not detected in the PABC or NPABC-treated groups at the measured timepoints (FIG. 6). […]

HIV-1ADA [4] = experiment: Antiretroviral activity of ABC and its ProTides against HIV-1ADA in MDM (RT activity); format: cell-based; settings: human MDM, RT activity day 10 post infection
Description: (§2) Cell model for in vitro studies: Human peripheral blood monocytes were obtained and cultured as described (Gendelman, et al., J. Exp. Med. (1988) 167:1428-1441). Briefly, human peripheral blood monocytes were obtained by leukapheresis from HIV-1/2 and hepatitis B seronegative donors, followed by purification via countercurrent centrifugal elutriation. Elutriated monocytes were cultured as adherent cells in Dulbecco's […] medium (DMEM) supplemented with 10% heat-inactivated pooled human serum, 10 μg/mL ciprofloxacin, 50 μg/mL gentamicin, and 1000 U/mL recombinant macrophage colony stimulating factor. Cells were maintained at 37° C. in a 5% CO2 incubator. Seven days later, differentiated macrophages (MDM) were used for the experiments.
Antiretroviral activity of ABC and its ProTides: The antiviral activities of native ABC and ABC ProTides against HIV-1ADA were determined in MDM as described (Singh, et al., Nanomedicine (2016) 11:1913-1927). MDM were incubated with various concentrations of ABC or ABC ProTides for 60 minutes followed by infection with HIV-1ADA at a multiplicity of infection (MOI) of 0.01 for 4 hours. […] At day 10 post infection, supernatants were collected and analyzed for HIV-1 reverse transcriptase (RT) activity (Kalter, et al., J. Clin. Microbiol. (1992) 30:993-995).

[5] = system: monocyte-derived macrophages (MDM); experiment: Intracellular level of CBV-TP in MDM treated with 10 μM ABC or ABC ProTides; format: cell-based; settings: 10 μM drug; for maximum CBV-TP levels: 3-48 hours; for percentage decrease of intracellular CBV-TP from Cmax at 48 hours: (Cmax−Cmin)/(Cmax)*100
Description: as §2
Intracellular level of CBV-TP of ABC and its ProTides: Intracellular levels of CBV-TP were measured as described (Balzarini, et al., FEBS Lett. (2004) 573:38-44). MDM were treated with 10 μM ABC and ABC ProTides. At 3, 6, 12, 24 and 48 hours after treatment, MDM were washed with PBS to remove excess free drug. The cells were then collected in 70% methanol. CBV-TP from MDM was extracted and quantitated by LC-MS/MS as described (Gautam, et al., J. Pharm. Biomed. Anal. (2018) 153:248-259). Sep-Pak QMA cartridges (360 mg, 37-55 μm; Waters) were used to separate CBV-TP from their mono- and di-phosphates counterparts. The QMA cartridges were conditioned with 10 ml of 500 mM KCl followed by 10 ml of 5 mM KCl. Samples were loaded onto the cartridges and washed with 15 ml of 75 mM KCl. The triphosphate fraction was eluted with 3 ml of 500 mM KCl and collected for de-phosphorylation. The pH of the TP fraction was lowered to 4.25 by adding 15 μl ammonium acetate buffer (pH 4.10 mM) per ml eluate, and dephosphorylated by adding one unit of type XA sweet potato acid phosphatase per ml eluate and incubating at 37° C. for 30 minutes. The ^15N2^13C-3TC and d4-ABC internal standard was added at this point. Samples were then loaded onto Waters OASIS® HLB cartridges (60 mg, 30 μm; Waters) pre-conditioned with 3 ml MeOH and 3 ml H2O, and washed with 3.5 ml H2O to remove salts. The nucleosides of interest were then eluted with 1.5 ml of MeOH and evaporated under vacuum. Once dry, the residue was reconstituted with a 100 μl of 25% MeOH and stored in the −20° C. freezer until the time of LC-MS/MS analyses. The LC-MS/MS system comprised of a Waters ACQUITY ultra-performance liquid chromatography (UPLC) system (Waters, Milford, Mass.) coupled to a triple quadrupole mass spectrometer with electrospray ionization (ESI) source (Waters Xevo TQ-XS). For the indirect quantification of TPs, chromatographic separation was performed with an ACQUITY UPLC using CSH analytical column (2.1×100 mm, 1.7 μm; Waters) equipped with a guard column (Waters, Milford, Mass.). Mobile phase A consisted of ammonium bicarbonate (pH 7, 7.5 mM) and mobile phase B was methanol. The flow rate was 0.25 ml/minute. […] Mobile phase B was then reset to 12% over 0.25 minutes and the column was equilibrated for 2.75 minutes before the next injection. The total run time was 13 minutes. The mass spectrometer was operated in the positive ion mode using multiple reaction monitoring (MRM). The following transitions were monitored: m/z 230→112 for 3TC, m/z 248→152 for CBV, m/z 287→191 for ABC, m/z 233→115 for the internal standard (IS) ^15N2^13C-3TC, and m/z 291→195 for IS d4-ABC. 3TC, CBV, ABC, ^15N2^13C-3TC, and d4-ABC were detected at a cone voltage of 22, 2, 4, 12, and 2 V, respectively, and a collision energy of 12, 12, 20, 10, and 20 V, respectively.

[6] = system: monocyte-derived macrophages (MDM); experiment: Cell viability of ABC and its ProTides in MDM (CCK-8); format: cell-based, human
Description: Cell viability of ABC and its ProTides: A CCK-8 Kit was purchased from Dojindo (Rockville, Md.) and used to test cell viability after treatment with ABC and its ProTides. Briefly, MDM plated in a 96-well plate were treated with 100 μl of 0-400 μM ABC and its ProTides for 24 hours. Drug containing medium was removed and replaced with fresh medium. Ten μl of CCK-8 solution was added to each well followed by incubation of the plate for 2 hours at 37° C. The absorbance (at 450 nm) of each well was measured using a microplate reader. The cell viability was calculated according to manufacturer's instructions.

Stability assay in serum = format: in vitro ADME, human; settings: 37° C., 24 hours, 15 μg/ml
Description: Stability Assay in Serum: The experiment was carried out by adding each ProTide into 100 μl human serum to reach a final concentration of 15 μg/ml in glass vial, and duplicate samples were used for each ProTide. After incubating the samples at 37° C. with shaking for 24 hours, 900 μl of MeOH was added to stop the reaction. Samples were vortexed for 3 minutes, then centrifuged down at 16,000 g for 10 minutes. The supernatants were transfer to new 2 ml tubes and evaporated to dryness under vacuum. The samples were reconstituted using 50 μl of MeOH, vortexed for 3 minutes and centrifuged down at 16,000 g for 10 minutes. The supernatants were analyzed by HPLC for drug concentrations. For control sample (0 minute), MeOH were added first to stop the enzyme before adding the ProTides.

CCCCCCCCCCCCCCCCCCCCCCOC(=O)C(Cc1ccccc1)NP(=O)(OCC1C=CC(n2cnc3c(NC4CC4)nc(N)nc32)C1)Oc1ccccc1 (mixture of isomers) [PABC]
pIC50 (HIV-1ADA [1]): 7.69 | drug loading capacity [2]: more than 70% | antiretroviral activity compared to ABC (HIV-1ADA [3]): enhanced antiretroviral activity | HIV-1 p24 (HIV-1ADA [3]; challenge after 1-20 days): not detected

CCCCCCCCCCCCCC(=O)OCC1C=CC(n2cnc3c(NC4CC4)nc(N)nc32)C1 (stereo not shown) [MABC]
pIC50 (HIV-1ADA [1]): 6.64

COC(=O)C(C)NP(=O)(OCC1C=CC(n2cnc3c(NC4CC4)nc(N)nc32)C1)Oc1ccccc1 (mixture of isomers) [M1ABC]
pEC50 (HIV-1ADA [4]): 8.74 | maximum CBV-TP levels [5]: 35650 fmol per million cells | CBV-TP levels at 48 hours [5]: 789 fmol per million cells | percentage decrease of intracellular CBV-TP from Cmax at 48 hours [5]: 97% and 97.8% | mitochondrial activity compared to ABC ([6]; 400 μM): differences in mitochondrial activity were seen

CCCCCCCCCCCCCCCCCCCCCCOC(=O)C(Cc1ccccc1)NP(=O)(OCC1C=CC(n2cnc3c(NC4CC4)nc(N)nc32)C1)Oc1ccccc1 (mixture of isomers) [M3ABC]
pEC50 (HIV-1ADA [4]): 8.15 | maximum CBV-TP levels [5]: 541 fmol per million cells | CBV-TP levels at 48 hours [5]: 230 fmol per million cells | percentage decrease of intracellular CBV-TP from Cmax at 48 hours [5]: 57% and 57.3% | cell viability difference versus ABC ([6]; all tested drug concentrations (0-400 μM)): No significant differences | prodrug hydrolyzed/degraded in human serum (Stability assay in serum): Nineteen percent
